Assay results published in US9284280B2, “Use of form-I crystal of 2-{4-[N-(5,6-diphenylpyrazin-2-yl)-N-isopropylamino]butyloxy}-N-(methylsulfonyl)acetamide” (NIPPON SHINYAKU CO., LTD., priority 2009, dated 2016).

Tests used:
[1] = Measurement of particle size distribution of the crystals (HORIBA LA-910) and observation with electron scanning microscope; type: physicochemical; settings: for D10: Cumulative undersize particle diameter at 10% of volumetric ratio / D50: Cumulative undersize particle diameter at 50% of volumetric ratio / D90: Cumulative undersize particle diameter at 90% of volumetric ratio: crystals dispersed with ultrasonic wave in saturated solution of compound A in 0.1 v/v % Polysorbate 80 aqueous solution
Protocol: After a dispersant (10 mL) was added to the crystals of the invention (20 mg) followed by shaking up, the crystals of the invention were dispersed with ultrasonic wave. The particle size distributions of the crystals of the invention were measured by using HORIBA LA-910. The dispersant used is a filtered saturated solution of compound A in 0.1 v/v % Polysorbate 80 aqueous solution. D10: Cumulative undersize particle diameter at 10% of volumetric ratio [μm] D50: Cumulative undersize particle diameter at 50% of volumetric ratio [μm] D90: Cumulative undersize particle diameter at 90% of volumetric ratio [μm] (2) Observation of the Crystals of the Invention with Electron Scanning Microscope The crystals were observed through an electron scanning microscope (HITACHI HIGH TECHNOLOGIES TM-1000 Miniscope).

PGI2 = PGI2 (Homo sapiens, UniProt P43119); settings: background statement, see WO 2002/088084; cited from earlier work
Chain of PGI2 (P43119 whole entry): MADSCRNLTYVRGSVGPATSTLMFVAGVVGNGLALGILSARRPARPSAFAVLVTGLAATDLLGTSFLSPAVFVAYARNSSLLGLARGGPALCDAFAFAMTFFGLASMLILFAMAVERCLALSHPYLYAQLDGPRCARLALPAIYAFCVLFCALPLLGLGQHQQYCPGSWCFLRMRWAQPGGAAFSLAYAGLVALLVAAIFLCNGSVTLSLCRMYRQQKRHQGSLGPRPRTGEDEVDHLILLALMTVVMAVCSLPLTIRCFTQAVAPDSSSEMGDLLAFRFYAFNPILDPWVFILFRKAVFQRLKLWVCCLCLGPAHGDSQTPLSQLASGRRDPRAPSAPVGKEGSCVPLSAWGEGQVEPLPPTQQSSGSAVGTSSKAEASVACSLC

Row | SMILES | D10: Cumulative undersize particle diameter at 10% of volumetric ratio [1] [μm] | D50: Cumulative undersize particle diameter at 50% of volumetric ratio [1] [μm] | D90: Cumulative undersize particle diameter at 90% of volumetric ratio [1] [μm] | particle size compared between crystal forms ([1]; conclusion from particle size distribution and electron scanning micrographs) | PGI2 agonistic effect (PGI2)
1 | CC(C)N(CCCCOCC(=O)NS(C)(=O)=O)c1cnc(-c2ccccc2)c(-c2ccccc2)n1 [Form-II Crystal of the Invention, 2-{4-[N-(5,6-diphenylpyrazin-2-yl)-N-isopropylamino]butyloxy}-N-(methylsulfonyl)acetamide] | 5.2 | 11.3 | 22.0 | – | –
2 | CC(C)N(CCCCOCC(=O)NS(C)(=O)=O)c1cnc(-c2ccccc2)c(-c2ccccc2)n1 [Form-III Crystal of the Invention, 2-{4-[N-(5,6-diphenylpyrazin-2-yl)-N-isopropylamino]butyloxy}-N-(methylsulfonyl)acetamide] | 4.3 | 8.0 | 14.4 | – | –
3 | CC(C)N(CCCCOCC(=O)NS(C)(=O)=O)c1cnc(-c2ccccc2)c(-c2ccccc2)n1 [Form-I Crystal of the Invention, 2-{4-[N-(5,6-diphenylpyrazin-2-yl)-N-isopropylamino]butyloxy}-N-(methylsulfonyl)acetamide] | 5.6 | 12.8 | 25.8 | larger than those of Form-II and Form-III crystals | –
4 | CC(C)N(CCCCOCC(=O)NS(C)(=O)=O)c1cnc(-c2ccccc2)c(-c2ccccc2)n1 [Compound A, 2-{4-[N-(5,6-diphenylpyrazin-2-yl)-N-isopropylamino]butyloxy}-N-(methylsulfonyl)acetamide] | – | – | – | – | excellent PGI2 agonistic effect
